In the kinase profiling compilation of Christmann-Franck et al. (2016):
Values joined by “and” are separate entries in the source; they are usually repeats but may differ in a detail not shown here. Equal entries are not always repeated.

Experiments:
Experiment in all cases: KINOMEscan competition binding
Settings in all cases: compound 10.0 µM
AURKC (human) = AURKC (human) (UniProt Q9UQB9)
CAMK2G (human) = CAMK2G (human) (UniProt Q13555)
CDK17 (human) = CDK17 (human) (UniProt Q00537)
EPHB1 (human) = EPHB1 (human) (UniProt P54762)
ERBB4 (human) = ERBB4 (human) (UniProt Q15303)
FGFR1 (human) = FGFR1 (human) (UniProt P11362)
FRK (human) = FRK (human) (UniProt P42685)
HCK (human) = HCK (human) (UniProt P08631)
HIPK1 (human) = HIPK1 (human) (UniProt Q86Z02)
[1] = molecular target: JAK1 JH2 pseudokinase (human) (UniProt P23458)
MAP3K11 (human) = MAP3K11 (human) (UniProt Q16584)
MAP3K9 (human) = MAP3K9 (human) (UniProt P80192)
MAPK11 (human) = MAPK11 (human) (UniProt Q15759)
MAPKAPK5 (human) = MAPKAPK5 (human) (UniProt Q8IW41)
MARK3 (human) = MARK3 (human) (UniProt P27448)
[2] = test system: MET (human), P08581 [Y1235D]
MKNK2 (human) = MKNK2 (human) (UniProt Q9HBH9)
MLTK (human) = MLTK (human) (UniProt Q9NYL2)
MYLK (human) = MYLK (human) (UniProt Q15746)
MYLK4 (human) = MYLK4 (human) (UniProt Q86YV6)
NUAK1 (human) = NUAK1 (human) (UniProt O60285)
PAK7 (human) = PAK7 (human) (UniProt Q9P286)
PHKG2 (human) = PHKG2 (human) (UniProt P15735)
PIK3CD (human) = PIK3CD (human) (UniProt O00329)
PRKX (human) = PRKX (human) (UniProt P51817)
RAF1 (human) = RAF1 (human) (UniProt P04049)
RIPK1 (human) = RIPK1 (human) (UniProt Q13546)
ROS1 (human) = ROS1 (human) (UniProt P08922)
SLK (human) = SLK (human) (UniProt Q9H2G2)
STK3 (human) = STK3 (human) (UniProt Q13188)
STK35 (human) = STK35 (human) (UniProt Q8TDR2)
STK36 (human) = STK36 (human) (UniProt Q9NRP7)
TAOK1 (human) = TAOK1 (human) (UniProt Q7L7X3)
TIE1 (human) = TIE1 (human) (UniProt P35590)
TNIK (human) = TNIK (human) (UniProt Q9UKE5)
TNNI3K (human) = TNNI3K (human) (UniProt Q59H18)
Sequence of TNNI3K (human) (Q59H18 whole entry, looked up): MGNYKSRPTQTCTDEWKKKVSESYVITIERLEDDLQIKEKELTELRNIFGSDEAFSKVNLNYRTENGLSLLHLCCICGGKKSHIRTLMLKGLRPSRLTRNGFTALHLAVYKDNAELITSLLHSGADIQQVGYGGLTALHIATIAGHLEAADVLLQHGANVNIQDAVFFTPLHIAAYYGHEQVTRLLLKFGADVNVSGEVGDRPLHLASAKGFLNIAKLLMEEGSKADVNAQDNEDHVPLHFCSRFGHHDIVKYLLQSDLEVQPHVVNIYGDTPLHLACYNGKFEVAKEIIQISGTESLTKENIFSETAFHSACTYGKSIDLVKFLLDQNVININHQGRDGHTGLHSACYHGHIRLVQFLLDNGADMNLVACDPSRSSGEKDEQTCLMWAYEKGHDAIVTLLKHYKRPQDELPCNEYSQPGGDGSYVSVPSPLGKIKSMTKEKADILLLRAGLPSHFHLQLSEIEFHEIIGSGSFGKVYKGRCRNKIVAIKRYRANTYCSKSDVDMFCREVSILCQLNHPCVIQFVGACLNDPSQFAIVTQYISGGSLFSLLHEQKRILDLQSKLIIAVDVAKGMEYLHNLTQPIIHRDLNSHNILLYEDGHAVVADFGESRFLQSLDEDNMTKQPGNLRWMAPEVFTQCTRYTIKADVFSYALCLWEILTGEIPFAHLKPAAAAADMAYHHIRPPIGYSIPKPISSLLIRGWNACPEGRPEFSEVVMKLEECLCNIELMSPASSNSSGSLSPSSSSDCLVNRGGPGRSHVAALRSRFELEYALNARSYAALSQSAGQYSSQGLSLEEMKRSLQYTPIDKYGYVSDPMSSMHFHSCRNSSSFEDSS

Sequence of HCK (human) (P08631 whole entry, looked up): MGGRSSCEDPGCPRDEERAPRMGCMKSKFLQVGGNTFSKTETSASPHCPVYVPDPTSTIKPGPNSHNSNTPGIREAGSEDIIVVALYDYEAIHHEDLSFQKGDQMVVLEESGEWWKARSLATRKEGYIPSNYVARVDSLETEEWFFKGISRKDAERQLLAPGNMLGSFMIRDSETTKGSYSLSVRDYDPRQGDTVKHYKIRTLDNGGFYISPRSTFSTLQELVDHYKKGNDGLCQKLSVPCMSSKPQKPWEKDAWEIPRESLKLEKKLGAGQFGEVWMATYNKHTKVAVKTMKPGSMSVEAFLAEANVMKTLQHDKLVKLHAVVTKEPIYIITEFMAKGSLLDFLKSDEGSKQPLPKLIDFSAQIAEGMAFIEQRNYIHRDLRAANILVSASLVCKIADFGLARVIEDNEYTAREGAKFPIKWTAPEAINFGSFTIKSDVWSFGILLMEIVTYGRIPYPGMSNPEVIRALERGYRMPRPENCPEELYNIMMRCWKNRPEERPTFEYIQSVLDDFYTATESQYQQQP
Sequence of ROS1 (human) (P08922 whole entry, looked up): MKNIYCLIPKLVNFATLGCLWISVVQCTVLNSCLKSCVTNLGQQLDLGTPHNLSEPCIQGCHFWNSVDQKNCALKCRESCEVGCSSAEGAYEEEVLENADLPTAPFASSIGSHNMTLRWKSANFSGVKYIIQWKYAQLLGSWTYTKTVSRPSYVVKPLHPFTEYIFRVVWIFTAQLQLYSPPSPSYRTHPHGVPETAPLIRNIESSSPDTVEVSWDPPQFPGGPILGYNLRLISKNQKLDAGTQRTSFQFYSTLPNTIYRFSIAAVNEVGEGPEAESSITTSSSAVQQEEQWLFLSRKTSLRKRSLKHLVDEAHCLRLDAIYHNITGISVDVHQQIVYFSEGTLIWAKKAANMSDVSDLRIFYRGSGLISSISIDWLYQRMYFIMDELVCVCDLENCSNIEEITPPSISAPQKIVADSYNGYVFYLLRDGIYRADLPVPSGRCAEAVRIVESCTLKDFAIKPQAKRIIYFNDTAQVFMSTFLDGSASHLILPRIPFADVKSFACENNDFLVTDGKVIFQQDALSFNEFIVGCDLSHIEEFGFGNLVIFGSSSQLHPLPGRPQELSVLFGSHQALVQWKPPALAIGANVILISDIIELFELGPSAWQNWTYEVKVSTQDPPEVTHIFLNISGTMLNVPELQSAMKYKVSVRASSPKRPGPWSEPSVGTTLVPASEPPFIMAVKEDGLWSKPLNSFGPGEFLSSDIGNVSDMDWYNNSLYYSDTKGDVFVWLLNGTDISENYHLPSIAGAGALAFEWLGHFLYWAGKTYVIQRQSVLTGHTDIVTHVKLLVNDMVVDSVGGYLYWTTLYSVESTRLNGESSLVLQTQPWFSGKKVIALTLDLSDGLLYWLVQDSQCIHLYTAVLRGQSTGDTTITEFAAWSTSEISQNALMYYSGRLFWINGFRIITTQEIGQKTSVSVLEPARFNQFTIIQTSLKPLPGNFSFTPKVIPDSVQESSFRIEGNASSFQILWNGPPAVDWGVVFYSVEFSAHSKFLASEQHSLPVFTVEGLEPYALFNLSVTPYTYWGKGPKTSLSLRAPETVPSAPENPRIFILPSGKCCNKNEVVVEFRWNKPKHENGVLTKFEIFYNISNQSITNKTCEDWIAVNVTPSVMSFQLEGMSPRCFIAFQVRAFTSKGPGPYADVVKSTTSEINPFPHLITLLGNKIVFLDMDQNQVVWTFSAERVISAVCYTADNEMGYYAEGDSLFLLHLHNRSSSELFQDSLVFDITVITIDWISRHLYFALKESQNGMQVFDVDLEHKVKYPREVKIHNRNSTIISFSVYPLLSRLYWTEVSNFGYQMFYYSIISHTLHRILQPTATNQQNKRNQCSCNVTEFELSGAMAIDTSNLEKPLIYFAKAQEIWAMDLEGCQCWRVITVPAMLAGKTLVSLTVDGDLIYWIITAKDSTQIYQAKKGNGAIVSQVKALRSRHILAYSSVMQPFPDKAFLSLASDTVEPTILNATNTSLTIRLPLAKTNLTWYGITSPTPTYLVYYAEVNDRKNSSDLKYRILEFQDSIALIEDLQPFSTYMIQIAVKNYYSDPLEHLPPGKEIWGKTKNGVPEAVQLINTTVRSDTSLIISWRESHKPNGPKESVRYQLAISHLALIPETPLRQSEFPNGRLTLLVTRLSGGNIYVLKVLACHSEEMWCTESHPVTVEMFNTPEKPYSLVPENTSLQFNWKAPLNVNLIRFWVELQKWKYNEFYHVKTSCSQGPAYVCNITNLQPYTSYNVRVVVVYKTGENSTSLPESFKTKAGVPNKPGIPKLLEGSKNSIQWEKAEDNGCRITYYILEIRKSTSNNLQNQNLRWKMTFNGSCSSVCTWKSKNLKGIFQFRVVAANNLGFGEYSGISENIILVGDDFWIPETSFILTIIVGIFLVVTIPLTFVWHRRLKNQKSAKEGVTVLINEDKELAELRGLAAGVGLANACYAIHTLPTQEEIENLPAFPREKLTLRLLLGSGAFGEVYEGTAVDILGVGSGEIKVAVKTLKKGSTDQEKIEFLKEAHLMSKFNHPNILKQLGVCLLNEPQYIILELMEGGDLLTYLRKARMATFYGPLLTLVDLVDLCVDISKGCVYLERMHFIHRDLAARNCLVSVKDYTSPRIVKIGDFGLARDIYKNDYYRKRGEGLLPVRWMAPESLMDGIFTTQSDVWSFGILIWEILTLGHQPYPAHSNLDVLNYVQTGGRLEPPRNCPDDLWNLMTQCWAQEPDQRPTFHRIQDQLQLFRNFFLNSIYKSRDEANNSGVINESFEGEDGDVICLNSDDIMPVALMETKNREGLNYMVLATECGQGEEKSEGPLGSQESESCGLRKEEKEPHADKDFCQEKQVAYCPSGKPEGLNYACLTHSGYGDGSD
Sequence of CAMK2G (human) (Q13555 whole entry, looked up): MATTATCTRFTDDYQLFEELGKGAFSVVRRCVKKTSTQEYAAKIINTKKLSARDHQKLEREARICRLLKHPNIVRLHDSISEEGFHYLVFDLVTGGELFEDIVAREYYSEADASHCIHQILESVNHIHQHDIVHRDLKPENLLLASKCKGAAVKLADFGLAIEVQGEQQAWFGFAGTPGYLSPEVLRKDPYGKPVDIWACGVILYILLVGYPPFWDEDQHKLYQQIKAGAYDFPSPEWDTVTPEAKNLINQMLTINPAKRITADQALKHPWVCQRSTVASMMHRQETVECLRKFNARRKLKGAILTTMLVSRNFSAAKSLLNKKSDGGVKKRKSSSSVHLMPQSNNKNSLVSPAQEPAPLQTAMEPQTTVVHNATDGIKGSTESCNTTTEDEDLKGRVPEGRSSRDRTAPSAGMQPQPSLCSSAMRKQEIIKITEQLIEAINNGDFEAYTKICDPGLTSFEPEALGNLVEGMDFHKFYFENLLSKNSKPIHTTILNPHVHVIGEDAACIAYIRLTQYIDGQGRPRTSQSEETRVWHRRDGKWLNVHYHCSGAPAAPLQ
Sequence of MLTK (human) (Q9NYL2 whole entry, looked up): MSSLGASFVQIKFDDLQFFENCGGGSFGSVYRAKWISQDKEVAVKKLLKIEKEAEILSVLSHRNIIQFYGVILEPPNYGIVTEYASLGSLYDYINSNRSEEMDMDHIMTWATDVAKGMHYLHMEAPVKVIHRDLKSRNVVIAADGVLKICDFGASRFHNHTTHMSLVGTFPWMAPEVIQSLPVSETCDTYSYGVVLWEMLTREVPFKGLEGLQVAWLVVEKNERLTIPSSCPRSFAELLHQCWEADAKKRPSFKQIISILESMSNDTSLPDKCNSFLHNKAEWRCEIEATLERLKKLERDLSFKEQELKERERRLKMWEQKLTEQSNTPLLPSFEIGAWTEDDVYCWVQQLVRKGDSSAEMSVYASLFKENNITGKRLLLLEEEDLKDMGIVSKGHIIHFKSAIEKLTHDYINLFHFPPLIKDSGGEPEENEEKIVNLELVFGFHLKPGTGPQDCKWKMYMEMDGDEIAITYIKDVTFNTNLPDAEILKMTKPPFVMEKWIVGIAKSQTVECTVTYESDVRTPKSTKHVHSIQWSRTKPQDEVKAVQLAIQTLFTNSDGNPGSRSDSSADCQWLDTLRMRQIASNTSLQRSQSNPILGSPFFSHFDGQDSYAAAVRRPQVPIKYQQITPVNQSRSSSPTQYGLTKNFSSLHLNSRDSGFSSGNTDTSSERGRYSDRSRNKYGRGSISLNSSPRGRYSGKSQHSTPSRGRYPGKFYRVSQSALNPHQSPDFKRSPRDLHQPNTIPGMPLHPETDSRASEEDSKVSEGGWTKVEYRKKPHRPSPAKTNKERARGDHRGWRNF

`COc1cc(N2CCN(C)CC2)ccc1Nc1ncc2c(n1)N(C)c1ccccc1C(=O)N2C` was tested, and the kinase still bound, per cent of control (AURKC (human)) was 100%, the kinase still bound, per cent of control (CAMK2G (human)) was 31% and the kinase still bound, per cent of control (CDK17 (human)) was 100%. For the same compound, the kinase still bound, per cent of control (EPHB1 (human)) was 100%, the kinase still bound, per cent of control (ERBB4 (human)) was 100% and the kinase still bound, per cent of control (FGFR1 (human)) was 100%. The kinase still bound, per cent of control (FRK (human)) was 2.6%, the kinase still bound, per cent of control (HCK (human)) was 100% and the kinase still bound, per cent of control (HIPK1 (human)) was 100%. For the same compound, the kinase still bound, per cent of control [1] was 100%, the kinase still bound, per cent of control (MAP3K11 (human)) was 100% and the kinase still bound, per cent of control (MAP3K9 (human)) was 100%. For the same compound, the kinase still bound, per cent of control (MAPK11 (human)) was 100%, the kinase still bound, per cent of control (MAPKAPK5 (human)) was 100% and the kinase still bound, per cent of control (MARK3 (human)) was 100%. The kinase still bound, per cent of control [2] was 100%, the kinase still bound, per cent of control (MKNK2 (human)) was 0% and the kinase still bound, per cent of control (MLTK (human)) was 100%. For the same compound, the kinase still bound, per cent of control (MYLK (human)) was 13%, the kinase still bound, per cent of control (MYLK4 (human)) was 100% and the kinase still bound, per cent of control (NUAK1 (human)) was 7.6%. The kinase still bound, per cent of control (PAK7 (human)) was 100%, the kinase still bound, per cent of control (PHKG2 (human)) was 29% and the kinase still bound, per cent of control (PIK3CD (human)) was 33%. It also gave a kinase still bound, per cent of control (PRKX (human)) of 100%, a kinase still bound, per cent of control (RAF1 (human)) of 100% and a kinase still bound, per cent of control (RIPK1 (human)) of 100%. For the same compound, the kinase still bound, per cent of control (ROS1 (human)) was 7.6%, the kinase still bound, per cent of control (SLK (human)) was 100% and the kinase still bound, per cent of control (STK3 (human)) was 100%. For the same compound, the kinase still bound, per cent of control (STK35 (human)) was 100%, the kinase still bound, per cent of control (STK36 (human)) was 100% and the kinase still bound, per cent of control (TAOK1 (human)) was 17% and 4.8%. The kinase still bound, per cent of control (TIE1 (human)) was 100%, the kinase still bound, per cent of control (TNIK (human)) was 100% and the kinase still bound, per cent of control (TNNI3K (human)) was 100%.
Work on `CNC(=O)c1ccc(Nc2cc(Nc3ccccc3S(=O)(=O)C(C)C)c3cc[nH]c3n2)nc1` yielded a kinase still bound, per cent of control (AURKC (human)) of 0.65%, a kinase still bound, per cent of control (CAMK2G (human)) of 100% and a kinase still bound, per cent of control (CDK17 (human)) of 100%. The kinase still bound, per cent of control (EPHB1 (human)) was 100%, the kinase still bound, per cent of control (ERBB4 (human)) was 100% and the kinase still bound, per cent of control (FGFR1 (human)) was 11%. It also gave a kinase still bound, per cent of control (FRK (human)) of 33%, a kinase still bound, per cent of control (HCK (human)) of 11% and a kinase still bound, per cent of control (HIPK1 (human)) of 100%. It also gave a kinase still bound, per cent of control [1] of 0.05%, a kinase still bound, per cent of control (MAP3K11 (human)) of 7.2% and a kinase still bound, per cent of control (MAP3K9 (human)) of 0.85%. The kinase still bound, per cent of control (MAPK11 (human)) was 100%, the kinase still bound, per cent of control (MAPKAPK5 (human)) was 100% and the kinase still bound, per cent of control (MARK3 (human)) was 13%. It also gave a kinase still bound, per cent of control (MKNK2 (human)) of 100%, a kinase still bound, per cent of control (MLTK (human)) of 100% and a kinase still bound, per cent of control (MYLK (human)) of 100%. For the same compound, the kinase still bound, per cent of control (MYLK4 (human)) was 100%, the kinase still bound, per cent of control (NUAK1 (human)) was 0.95% and the kinase still bound, per cent of control (PAK7 (human)) was 100%. It also gave a kinase still bound, per cent of control (PHKG2 (human)) of 100%, a kinase still bound, per cent of control (PIK3CD (human)) of 100% and a kinase still bound, per cent of control (PRKX (human)) of 100%. For the same compound, the kinase still bound, per cent of control (RAF1 (human)) was 100%, the kinase still bound, per cent of control (RIPK1 (human)) was 100% and the kinase still bound, per cent of control (ROS1 (human)) was 0.85%. For the same compound, the kinase still bound, per cent of control (SLK (human)) was 0%, the kinase still bound, per cent of control (STK3 (human)) was 0.2% and the kinase still bound, per cent of control (STK35 (human)) was 12%. For the same compound, the kinase still bound, per cent of control (STK36 (human)) was 100%, the kinase still bound, per cent of control (TAOK1 (human)) was 0.65% and the kinase still bound, per cent of control (TIE1 (human)) was 0.2%. It also gave a kinase still bound, per cent of control (TNIK (human)) of 19% and a kinase still bound, per cent of control (TNNI3K (human)) of 100%.
`C=CC(=O)Nc1ccc(CN(C(=O)Nc2c(Cl)c(OC)cc(OC)c2Cl)c2cc(Nc3ccc(N4CCN(C)CC4)cc3)ncn2)cc1` showed a kinase still bound, per cent of control (AURKC (human)) of 100%, a kinase still bound, per cent of control (CAMK2G (human)) of 100% and a kinase still bound, per cent of control (CDK17 (human)) of 100%. The kinase still bound, per cent of control (EPHB1 (human)) was 100%, the kinase still bound, per cent of control (ERBB4 (human)) was 2.2% and the kinase still bound, per cent of control (FGFR1 (human)) was 2.2%. The kinase still bound, per cent of control (FRK (human)) was 0.65%, the kinase still bound, per cent of control (HCK (human)) was 11% and the kinase still bound, per cent of control (HIPK1 (human)) was 100%. The kinase still bound, per cent of control [1] was 100%, the kinase still bound, per cent of control (MAP3K11 (human)) was 10% and the kinase still bound, per cent of control (MAP3K9 (human)) was 12%. For the same compound, the kinase still bound, per cent of control (MAPK11 (human)) was 100%, the kinase still bound, per cent of control (MAPKAPK5 (human)) was 100% and the kinase still bound, per cent of control (MARK3 (human)) was 100%. It also gave a kinase still bound, per cent of control (MKNK2 (human)) of 100%, a kinase still bound, per cent of control (MLTK (human)) of 100% and a kinase still bound, per cent of control (MYLK (human)) of 100%. It also gave a kinase still bound, per cent of control (MYLK4 (human)) of 100%, a kinase still bound, per cent of control (NUAK1 (human)) of 100% and a kinase still bound, per cent of control (PAK7 (human)) of 100%. The kinase still bound, per cent of control (PHKG2 (human)) was 100%, the kinase still bound, per cent of control (PIK3CD (human)) was 100% and the kinase still bound, per cent of control (PRKX (human)) was 100%. It also gave a kinase still bound, per cent of control (RAF1 (human)) of 100%, a kinase still bound, per cent of control (RIPK1 (human)) of 100% and a kinase still bound, per cent of control (ROS1 (human)) of 100%. It also gave a kinase still bound, per cent of control (SLK (human)) of 9.8%, a kinase still bound, per cent of control (STK3 (human)) of 100% and a kinase still bound, per cent of control (STK35 (human)) of 100%. The kinase still bound, per cent of control (STK36 (human)) was 100%, the kinase still bound, per cent of control (TAOK1 (human)) was 0.8% and the kinase still bound, per cent of control (TIE1 (human)) was 0%. For the same compound, the kinase still bound, per cent of control (TNIK (human)) was 100% and the kinase still bound, per cent of control (TNNI3K (human)) was 100%.
